Consider five molecules from paper PMC9421655, “Novel Antagonist of the Type 2 Lysophosphatidic Acid Receptor (LPA2), UCM-14216, Ameliorates Spinal Cord Injury in Mice” (Journal of Medicinal Chemistry, 2022).

Data set [1] concerns the target T1, LPA1 (Homo sapiens, UniProt Q92633). Description: cell-based. The settings on record: for Emax (%) LPA1: maximum blockade of activation induced by 10 μM LPA (18:1) at 10 μM compound, N.E. = no effect at 10 μM. Also noted: Emax: dose or concentration left out as unconfirmed. How it is done: (§1) Cells stably expressing the corresponding LPA1–3 receptor were grown as described previously.[18] Changes in intracellular calcium levels were measured by using the fluorescent calcium sensitive dye Fluo-4 NW (Invitrogen). RH7777 cells or B103 cells were plated on poly-D-lysine or collagen coated, respectively, black-wall clear-bottom 96-well plates (Corning) at a density of 50 000 cells/well and cultured overnight. The culture medium was then replaced with 100 μL of Fluo-4 NW dye loading solution containing 2.5 μM of probenecid and incubated for 30 min at 37 °C followed by an additional 30 min at rt. […] Fluorescence changes were registered in a FluoStar Optima instrument (BMG Labtech) at 525 nm using an excitation wavelength of 494 nm. […] The data presented are from two to four independent experiments carried out in triplicate or quadruplicate. Dose–response curves were generated and IC50 values calculated by nonlinear regression analysis using Prism software version 5 (GraphPad Software Inc., San Diego, CA, USA).

Data set [2] deals with T2, LPA3 (Homo sapiens, UniProt Q9UBY5).
T2 sequence (Q9UBY5 1-353): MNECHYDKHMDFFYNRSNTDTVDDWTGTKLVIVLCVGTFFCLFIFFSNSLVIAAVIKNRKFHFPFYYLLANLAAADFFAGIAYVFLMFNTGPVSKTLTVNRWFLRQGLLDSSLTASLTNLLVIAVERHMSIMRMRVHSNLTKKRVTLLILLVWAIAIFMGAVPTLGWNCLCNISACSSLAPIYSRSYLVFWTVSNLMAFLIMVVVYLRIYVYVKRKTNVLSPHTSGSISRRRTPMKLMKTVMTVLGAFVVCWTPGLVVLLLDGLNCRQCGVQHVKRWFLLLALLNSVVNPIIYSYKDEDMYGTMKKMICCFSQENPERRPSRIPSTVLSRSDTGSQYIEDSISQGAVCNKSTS
The data set is described as follows: cell-based. Particulars: for Emax (%) LPA3: maximum blockade of activation induced by 10 μM LPA (18:1) at 10 μM compound, N.E. = no effect at 10 μM. How it is done:
as §1

Data set [3] concerns the target T2, LPA3. Also noted: expressed in transfected cells. Particulars: cited from earlier work.
For data set [4], the target named is T3, LPA2 (Homo sapiens, UniProt Q9HBW0).
T3 construct: expressed in transfected cells
T3 sequence (Q9HBW0 whole entry, species assumed): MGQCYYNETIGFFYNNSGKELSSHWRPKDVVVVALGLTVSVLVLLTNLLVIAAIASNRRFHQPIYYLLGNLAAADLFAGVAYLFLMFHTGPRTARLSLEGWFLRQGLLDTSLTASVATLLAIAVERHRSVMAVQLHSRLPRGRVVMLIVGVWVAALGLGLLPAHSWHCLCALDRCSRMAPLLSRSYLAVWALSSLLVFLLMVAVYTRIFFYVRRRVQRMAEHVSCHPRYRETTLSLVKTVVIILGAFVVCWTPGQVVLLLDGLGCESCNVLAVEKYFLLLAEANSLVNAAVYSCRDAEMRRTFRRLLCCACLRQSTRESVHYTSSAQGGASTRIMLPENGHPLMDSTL
The data set is described as follows: Ca2+ mobilization assay, antagonist activity at LPA2. The settings on record: for IC50: antagonism of 10 μM LPA, mean ± s.e.m. It is filed as cell-based. How it is done: as §1
Figure S2. Dose response curves for compounds 13, 44, 53, 54, and 55. B103 cells stably expressing LPA2 receptor were incubated with different concentrations of the compound under study and […]
Curves were generated with PRISM software version 5 (GraphPad Software Inc, San Diego, CA, USA) using nonlinear regression analysis. Each data point corresponds to the mean±SEM of two to four independent experiments carried out in triplicate or quadruplicate.
On the technique in general: Calcium assays in cells follow changes in intracellular calcium, usually with a dye or a luminescent sensor.

Data set [5] deals with T3, LPA2. Particulars: cited from earlier work.
For data set [6], the target named is T3, LPA2. Description: Ca2+ mobilization assay, agonist activity at LPA2. It is filed as cell-based. Particulars: 10 μM compound. How it is done:
The agonist activity at LPA2 receptors was determined at 10 μM concentration for all final compounds as previously described.[18]
Figure S1. Representative snapshots showing the lack of significant agonist activity of selected compounds. (A) 1; (B) 13; (C) 54; and (D) Ki16425. (E) Graphs show the agonist activity induced […]
stably expressing LPA2 receptor were plated on collagen-coated black-wall clear-bottom 96-well plates (Corning) at a density of 50000 cells/well and cultured overnight. The culture medium was then replaced with Fluo-4 NW dye loading solution containing 2.5 µM of probenecid and incubated […]
for 30 minutes at 37 °C followed by an additional 30 minutes at rt. Fluorescence changes were registered in a FluoStar Optima instrument (BMG Labtech) at 525 nm using an excitation wavelength of 494 nm. Each well was monitored for 240 s. 20 µL of the test compound from a 6x stock solution in assay buffer were added after 120 s of starting the measurement. Ca2+ transient increase was quantified by calculating the difference between maximum and baseline values for each […]
Graphs shown are representative of two to three independent experiments.

Data set [7] has as its target T1, LPA1. Also noted: expressed in transfected cells. Particulars: cited from earlier work.
The nature of data set [8]: Parallel artificial membrane permeability assay (PAMPA). Type of data set: in vitro ADME. Particulars: PBS pH 7.4, 5 h, rt. As for the experimental part:
These studies were carried out as previously described with minor modifications.[41],[42] The assessment of the membrane permeability of synthesized compounds and propranolol and metoprolol as reference compounds was performed in a commercially available 96-well Corning Gentest precoated PAMPA plate system (Cultek S.L.U., Spain). Prior to use, the precoated PAMPA plate system was warmed to rt for 30 min and 300 μL of 200 μM solution of tested compound in 2% DMSO in PBS (pH 7.4) were added into wells in the receiver (donor) plate. Then, 200 μL of PBS were added into wells in the filter (acceptor) plate. The filter plate was placed on the receiver plate by slowly lowering the precoated PAMPA plate until it sits on the receiver plate. The assembly was incubated at rt for 5 h, and then buffer samples were collected carefully from each plate. The final concentrations of compound in both donor and acceptor wells were analyzed by HPLC-MS and quantification was estimated by using the peak area integration normalized with an internal standard. Permeability value of the compounds was calculated using the following formula: P (cm/s) = {−ln[1 – CA(t)/Ceq]}/[A(1/VD + 1/VA)t], where A = filter area (0.3 cm^2), VD = donor well volume (0.3 mL), VA = acceptor well volume (0.2 mL), t = incubation time (s), CA(t) = compound concentration (μM) in the acceptor well at time t, CD(t) = compound concentration (μM) in donor well at time t, and Ceq = [CD(t)VD + CA(t)VA]/(VD + VA). Assays were performed in duplicate, and the compound was tested in two different plates on different days.
In general terms: In PAMPA a lipid-coated filter parts donor from acceptor wells.

Data set [9] can be described thus: Metabolic stability in mouse liver microsomes. The settings on record: male, CD-1, mouse, liver microsomes (pooled), 1 mg/mL protein, NADPH, 37 °C, read-out: stability (t1/2, min) MLMs. It is filed as in vitro ADME. How it is done:
(§2) Reactions were initiated by the addition of a suspension of mouse liver microsomes (MLMs) (male CD-1 mice pooled, Sigma-Aldrich) or human liver microsomes (HLMs) (male human pooled, Sigma-Aldrich), respectively, at a final protein concentration of 1 mg/mL. […] Aliquots of 100 μL were quenched at time zero and at seven points ranging to 2 h (MLM) or 4 h (HLM) by pouring into 100 μL of ice-cold acetonitrile. […] The relative disappearance of the compound under study over the course of the incubation was monitored by HPLC-MS using SIM mode. Concentrations were quantified by measuring the area under the peak ([M + H]^+) normalized with an internal standard and converted to the percentage of compound remaining, using the time zero peak area value as 100%. The natural logarithm of the remaining percentage versus time data for each compound was fit to a linear regression, and the slope was used to calculate the degradation half-life (t1/2).
In general terms: Microsomes from liver hold many membrane-bound enzymes, among them those of drug oxidation.

A short description of data set [10]: Metabolic stability in human liver microsomes. Type of data set: in vitro ADME. Particulars: male, liver microsomes (pooled), 1 mg/mL protein, NADPH, 37 °C, read-out: stability (t1/2, min) HLMs. As for the experimental part: as §2

Like-named read-outs stand apart in the source and are kept apart here. Bounds are passed on as bounds.

T1 sequence (Q92633 whole entry, species assumed): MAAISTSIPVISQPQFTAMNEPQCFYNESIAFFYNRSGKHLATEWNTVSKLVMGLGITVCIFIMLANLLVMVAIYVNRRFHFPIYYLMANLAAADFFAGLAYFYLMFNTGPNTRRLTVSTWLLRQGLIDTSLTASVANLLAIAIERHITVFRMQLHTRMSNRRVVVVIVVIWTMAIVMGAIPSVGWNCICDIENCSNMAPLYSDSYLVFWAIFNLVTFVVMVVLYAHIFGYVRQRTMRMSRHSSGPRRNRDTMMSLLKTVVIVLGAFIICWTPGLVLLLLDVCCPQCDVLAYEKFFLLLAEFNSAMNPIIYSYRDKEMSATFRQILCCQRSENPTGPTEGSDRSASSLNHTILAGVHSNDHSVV

Usually Emax stands for the maximal effect, on the per cent scale that the assay sets. For orientation: IC50 means the concentration that inhibits the measured activity by half. Turning to `Cc1noc(-c2ccc(CSCCC(=O)O)cc2)c1NC(=O)OC(C)c1ccccc1Cl` (stereo not shown) [Ki16425, reference compound], the values for the Emax on LPA1 [1] (read-out: Emax (%) LPA1) and on LPA3 [2] (read-out: Emax (%) LPA3) were 97 ± 4% and 99 ± 3%, respectively. Besides, the 50% inhibitory concentration (IC50) on LPA1 [1] (read-out: IC50 (μM) LPA1, antagonism of 10 μM LPA, mean ± s.e.m.) is 0.8 µM; at LPA3 [2] (read-out: IC50 (μM) LPA3, antagonism of 10 μM LPA, mean ± s.e.m.), 1.6 µM; on LPA3 [3], 930 nM; at LPA2 [4] it was 1.2 µM; on LPA2 [5], 6500 nM; on LPA1 [7] it was 340 nM. At LPA2 [4], this molecule showed an Emax at 10 µM of 92 ± 3%. Also, on LPA2 [6], the “agonist activity at LPA2 receptor” value is listed as “lack”.

For the molecule `Cc1[nH]nc(-c2ccc(OCC(=O)O)cc2O)c1Oc1ccccc1Cl` [Compound 1], the “Emax (%) LPA1” value on LPA1 [1] is given as “N.E.^c”. Also, on LPA3 [2], the “Emax (%) LPA3” value was “N.E”. This molecule came in with a maximal response (Emax) at 10 µM on LPA2 [4] of 48 ± 9%. In addition, the “agonist activity at LPA2 receptor” value on LPA2 [6] was “lack and absence of significant agonist activity”.

On to `O=C(O)/C=C/C(=O)Nc1ccc(Oc2cccc(Oc3ccc(NC(=O)/C=C/C(=O)O)cc3)c2)cc1` [Compound H2L5186303], for which the values for the IC50 at LPA3 [3] and on LPA1 [7] were 27300 nM and 1230 nM, respectively.

`Cc1csc2c(N[C@@H](C)CN3CCN(S(=O)(=O)c4ccc(Cl)c(Cl)c4)CC3)ncnc12` [Compound C35]: the IC50 on LPA3 [3] and on LPA1 [7] was greater than 50000 nM each time.

Broadly, the melting point is the temperature of the solid-liquid transition. In the case of `Cc1[nH]nc(-c2ccc(OCC(=O)O)cc2O)c1Oc1ccc(Cl)cc1Cl` [Compound 13, {4-[4-(2,4-Dichlorophenoxy)-5-methyl-1H-pyrazol-3-yl]-3-hydroxyphenoxy}acetic Acid], the melting point is > 196 °C (dec.). For the same molecule, at LPA1 [1], the “Emax (%) LPA1” value is “N.E. and N.E. ^c”. Further, the “Emax (%) LPA3” value at LPA3 [2] is reported as “N.E”. At LPA2 [4], this molecule gave a maximal effect (Emax) at 10 µM of 84 ± 3% and an IC50 of 5.5 µM. For the same molecule, the “P (cm/s), permeability value” in [8] (200 μM) is 0.1 × 10^–6 cm/s. The Papp at 5 h, 200 μM in data set [8] (pH 7.4, PAMPA, read-out: P (cm/s), permeability value) was determined as 0.11 ×10⁻⁶ cm/s. Besides, the half-life at 1 μM in [9] was roughly 16 min. Besides, the half-life at 5 μM in data set [10] is roughly 60 min. In addition, the “agonist activity at LPA2 receptor” value on LPA2 [6] is “lack”.
